The record followed here is PubChem BioAssay (NCI).

Among the test systems are DU-145 prostate; EKVX NSCLC; HCC-2998 colon; HT29 colon; IGROV1 ovarian; OVCAR-8 ovarian; SF-295 CNS; SN12C renal; SNB-19 CNS; HS 578T breast.
Holding throughout (test): NCI anticancer screen, dose series, 48 h

The structures appear in SMILES notation.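 Where inhibition never reached the appropriate level, the endpoint shown equals the highest concentration tested. Otherwise, values were interpolated linearly from a five-concentration, 48-hour dose response in 96-well plates. GI50 marks 50% less growth. TGI marks complete inhibition of growth.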

Consider `CC(=O)NS(=O)(=O)c1ccc(NC(=O)c2c3ccccc3nc3ccccc23)cc1`, for which the TGI in the assay on DU-145 prostate, in the assay on EKVX NSCLC, in the assay on HCC-2998 colon, in the assay on HT29 colon, in the assay with IGROV1 ovarian and with OVCAR-8 ovarian was more than 100 µM each time. The TGI in the assay on SF-295 CNS, with SN12C renal and with SNB-19 CNS was more than 100 µM in each case.
Take `COc1cc(/C=C/C(=O)O)ccc1C(=O)O/C=C/c1ccccc1`: the TGI in the assay on EKVX NSCLC, with HT29 colon, in the assay on IGROV1 ovarian, in the assay with OVCAR-8 ovarian, with SF-295 CNS and in the assay on SN12C renal was more than 100 µM each time. The compound further returned a TGI in the assay with SNB-19 CNS of more than 100 µM.
Take `CC(C)=C[C@@H]1C[C@H](n2cc(C)c(=O)[nH]c2=O)ON1CCO`: the TGI with DU-145 prostate, with EKVX NSCLC, in the assay on HS 578T breast, with HT29 colon, with IGROV1 ovarian and in the assay with OVCAR-8 ovarian was more than 100 µM throughout. The TGI with SF-295 CNS, with SN12C renal and with SNB-19 CNS was more than 100 µM in each case.
In the case of `Cc1cc2c(C)cc(=O)[nH]c2cc1N`, the TGI with DU-145 prostate, in the assay with EKVX NSCLC, with HCC-2998 colon, in the assay with HT29 colon, in the assay with IGROV1 ovarian and with OVCAR-8 ovarian was more than 100 µM each time. In addition, the TGI in the assay with SF-295 CNS, in the assay on SN12C renal and in the assay on SNB-19 CNS was more than 100 µM throughout.
Regarding `CCC[C@H]1C(=O)N=C(N)N1C(=O)OCc1ccccc1`, the TGI in the assay with EKVX NSCLC, in the assay on HCC-2998 colon, in the assay on HS 578T breast, in the assay on HT29 colon, with IGROV1 ovarian and in the assay on OVCAR-8 ovarian was more than 100 µM throughout. Further, the TGI in the assay with SF-295 CNS, with SN12C renal and with SNB-19 CNS was more than 100 µM in each case.
For the compound `COc1ccc(N[C@H](CSc2ccc(C)cc2)c2ccc(F)cc2)cc1`, the TGI in the assay on DU-145 prostate, in the assay with EKVX NSCLC, in the assay with HCC-2998 colon, in the assay on HT29 colon, in the assay with IGROV1 ovarian and with OVCAR-8 ovarian was more than 100 µM in each case. Moreover, the TGI with SF-295 CNS, with SN12C renal and in the assay with SNB-19 CNS was more than 100 µM throughout.
Consider `CCCCOC(C)(C)/C=C/C(O)[C@](C)(O)[C@H]1[C@H](O)C[C@@]2(C)[C@@H]3CCc4c(cc(OC5OC(CO)C(O)C(O)C5O)c(O)c4C)C3(C)C(=O)C[C@]12C` (stereo partly specified), for which the TGI in the assay with DU-145 prostate, with EKVX NSCLC, in the assay on HCC-2998 colon, in the assay on HT29 colon, with IGROV1 ovarian and with OVCAR-8 ovarian was more than 100 µM in each case. Also, the TGI in the assay with SF-295 CNS, in the assay with SN12C renal and with SNB-19 CNS was more than 100 µM in each case.
Take `Cc1cc(C)c2c(=O)n(CN3CC4Nc5ccccc5C4C3)sc2n1` (stereo unspecified): the TGI was 40.9 µM in the assay on DU-145 prostate; 88.5 µM with EKVX NSCLC; more than 100 µM in the assay on HS 578T breast; 46.1 µM with HT29 colon; more than 100 µM with IGROV1 ovarian; 52 µM in the assay on OVCAR-8 ovarian. Besides, the TGI with SF-295 CNS, in the assay on SN12C renal and in the assay on SNB-19 CNS was more than 100 µM throughout.
With `CCC12C[N+]3([O-])CCc4c([nH]c5ccccc45)C(C(=O)OC)(c4cc5c(cc4OC)N(C)C4C(O)(C(=O)OC)C(OC(C)=O)C6(CC)C=CCN7CCC54C76)CC(C3)C1O2` (stereo unspecified), the TGI with EKVX NSCLC was 18 µM; in the assay with HCC-2998 colon it was more than 100 µM; with HT29 colon, 17.2 µM; in the assay with IGROV1 ovarian, 14.9 µM; in the assay with OVCAR-8 ovarian, 54.1 µM; with SF-295 CNS it was 1.86 µM. Moreover, the TGI in the assay with SN12C renal was found to be 24.5 µM; in the assay on SNB-19 CNS, 11.9 µM.
As for `COc1cc(C2c3cc4c(cc3OC(NN=C(C)C)C2C)OCO4)cc(OC)c1O` (stereo unspecified), the TGI in the assay on DU-145 prostate is more than 100 µM; in the assay with HCC-2998 colon, 31.6 µM; in the assay with HT29 colon it was more than 100 µM; in the assay on IGROV1 ovarian, more than 100 µM; with OVCAR-8 ovarian, more than 100 µM; in the assay with SF-295 CNS it was more than 100 µM. For the same compound, the TGI in the assay with SN12C renal and in the assay with SNB-19 CNS was more than 100 µM throughout.
`CCCCN1CCN(c2ccc3nc(-c4ccc5nc(-c6ccc(C(F)(F)F)cc6)[nH]c5c4)[nH]c3c2)CC1`: the GI50 in the assay on DU-145 prostate was 0.915 µM; in the assay on EKVX NSCLC, 1.57 µM; in the assay on HCC-2998 colon, 1.84 µM; in the assay on HS 578T breast it was 1.82 µM; in the assay on HT29 colon, 0.385 µM; with OVCAR-8 ovarian, 1.24 µM. Further, the GI50 in the assay with SF-295 CNS is 1.48 µM; with SN12C renal, 1.61 µM. Also, the TGI with DU-145 prostate came to 2.36 µM; with EKVX NSCLC it was 3.07 µM; with HCC-2998 colon, 3.55 µM; with HS 578T breast it was 3.73 µM; with HT29 colon, 1.45 µM; in the assay on OVCAR-8 ovarian, 2.64 µM. Moreover, the TGI came out at 2.95 µM in the assay on SF-295 CNS and 3.21 µM with SN12C renal.
With `CCN(CC)CCNc1ccc2nnn3c4ccc(OC)cc4c(=O)c1c23`, the TGI came out at 15.9 µM with HT29 colon; 22.9 µM with IGROV1 ovarian; 19.9 µM with OVCAR-8 ovarian; 18.6 µM in the assay on SF-295 CNS; 19.9 µM in the assay on SN12C renal; 25.9 µM in the assay on SNB-19 CNS.
For `Nc1c2ccccc2nc2c1ccc1ncccc12`, the TGI in the assay on DU-145 prostate is more than 100 µM; with EKVX NSCLC, more than 100 µM; with HCC-2998 colon it was 39.1 µM; in the assay on HT29 colon, more than 100 µM; in the assay on IGROV1 ovarian, more than 100 µM; in the assay on OVCAR-8 ovarian it was more than 100 µM. Besides, the TGI with SF-295 CNS, in the assay on SN12C renal and in the assay on SNB-19 CNS was more than 100 µM in each case.
For `COc1cc(OCc2ccc3oc(=O)c(-c4ccccc4)nc3c2)cc(OC)c1OC`, the TGI with DU-145 prostate, with HCC-2998 colon, with HS 578T breast, with HT29 colon, with IGROV1 ovarian and in the assay with OVCAR-8 ovarian was more than 100 µM throughout. Further, the TGI in the assay with SF-295 CNS, in the assay on SN12C renal and in the assay on SNB-19 CNS was more than 100 µM throughout.
